In EP1675557B1, “COMPOSITION COMPRISING A SESQUITERPENE LACTONE” (Greenpharma, priority 2003, dated 2005):

Legend:
[1] = test system: PBMCs (lymphocytes et monocytes) ou du sang total; experiment: Cell viability test (XTT, mitochondrial dehydrogenase); conditions: relative to control of activated cells
Description: (§1) Les tests ont été réalisés sur des PBMCs (lymphocytes et monocytes) ou du sang total de donneurs sains humains. Tous les prélèvements ont été réalisés au Service d'Hépato-Gastroentérologie et d'Assistance Nutritive des Hôpitaux Universitaires de Strasbourg (Hôpital de Hautepierre), après approbation du protocole d'étude concernant les effets du célastrol par le CCPPRB n°1 d'Alsace.
(§2) Chez des volontaires sains, 20 ml de sang veineux périphérique sont prélevés le matin à jeun sur héparine. Le sang est ensuite dilué au demi dans de la solution saline équilibrée de Hank's dépourvue en Ca^2+ et en Mg^2+ (HBSS-CMF, Gibco BRL, Cergy, France) additionnée de 100 UI/ml de streptomycine (Biochrom KG, Berlin, Allemagne) et de 100 UI/ml de pénicilline (Biochrom KG). Les PBMCs (lymphocytes et monocytes) sont alors séparées par centrifugation sur Ficoll-Histopaque de densité 1,076 (Sigma, L'Isle d'Abeau-Chesnes, France) (30 min à 400 g) puis, après deux lavages dans du HBSS-CMF additionné d'antibiotiques (10 min à 250 g), resuspendues dans du milieu RPMI 1640 (Gibco BRL) additionné de 10 % (volume/volume) de sérum foetal de veau (SFV) inactivé à la chaleur (56°C, 30 min, Gibco BRL) et d'antibiotiques. Après comptage à la cellule de Malassez, les cellules sont incubées à raison de 2 x 10^5 cellules/puits de 1 ml dans des plaques de 24 puits (Corning Inc., New York, USA) à 37°C dans un incubateur humidifié (air 95 % - CO2 5 %), en présence ou en absence des molécules étudiées préparées dans du DMSO (diméthyl sulfoxyde, Sigma ; maximum : 1 % (v/v) par puit), avec ou sans activation par du lipopolysaccharide de Salmonella abortus equi (LPS, 5 µg/ml) (Sigma) et de la phytohémagglutinine (PHA, 1 µg/ml) (Sigma) ajoutés à T0. Après 24 heures d'incubation, les plaques sont centrifugées (15 min à 200 g), et les surnageants prélevés puis congelés à -80°C jusqu'au dosage.
(§3) La technique est basée sur le clivage par la déshydrogénase mitochondriale d'un sel de tétrazolium de couleur jaune en formazan de couleur orange. Les culots cellulaires (PBMCs et sang total) contenus dans les plaques de culture sont resuspendus dans du RPMI 1640 additionné d'hydroxide 2,3-bis-(2-méthoxy-4-nitro-5-sulfophényl)-5-[(phénylamino)carbonyl]-2H-tétrazolium (XTT, 1 mg/ml, Sigma), et de méthosulfate de phénazine (1,25 mM, Sigma), catalyseur de la réaction. Les plaques sont incubées 4 à 24 heures, puis lues en absorbance à 450 nm (filtre de référence : 620 nm). La viabilité cellulaire est estimée par rapport au témoin de cellules activées.

[2] = test system: cellules de type Jurkat; experiment: Apoptosis test on Jurkat cells, apoptosis induced by sodium arsenate, quantified by flow cytometry (propidium iodide); format: cell-based, humaine; conditions: apoptosis induced by 5 µM arséniate de sodium
Description: Les tests apoptotiques ont été réalisés sur des cellules de type Jurkat. La lignée cellulaire Jurkat (Clone E6-1, ATCC TIB 152), dérivée de cellule T humaine de leucémie aiguë, a été décrite dans la littérature (Weiss A. et al, Journal of Immunology, 1984, 133, 123). Les cellules ont été incubées dans un milieu de culture en présence 1 µL d'arséniate de sodium. La concentration finale en arséniate de sodium dans le milieu de culture est de 5 µM. Afin de tester l'inhibition de l'apoptose induite par l'arséniate de sodium, les cellules ont été cultivées soit en absence (témoin) soit en présence de vulgarine 2,6 µM ou d'un de ses dérivés.
L'apoptose a été quantifiée par cytometrie en flux. Les cellules sont rendues perméables et leurs noyaux sont teintés avec de l'iodure de propidium en présence de ribonucléase. Un minimum de 3000 cellules ont été analysées afin de quantifier l'apoptose cellulaire (Hotz M.A. et al, Cytometry, 1994, 15, 237).

[3] = in vitro; conditions: human, pbmcs or whole blood
Description: as §1, §2, §3

Compound | Pourcentage de viabilité cellulaire ([1]; Concentration 0,01 µM, 0.01 µM) | Pourcentage de viabilité cellulaire ([1]; Concentration 0,1 µM, 0.1 µM) | Pourcentage de viabilité cellulaire ([1]; Concentration 1 µM) | Pourcentage de viabilité cellulaire ([1]; Concentration 10 µM) | Pourcentage de viabilité cellulaire ([1]; Concentration 30 µM) | pourcentage d'inhibition de l'apoptose ([2]; 2,6 µM) | inhibition at 2.6 µM ([2]; Homo sapiens, 2,6 µM, read-out: pourcentage d'inhibition de l'apoptose) | viability at 0.01 µM [3] | viability at 0.1 µM [3] | viability at 1 µM [3] | viability at 10 µM [3] | viability at 30 µM [3]
4-épivulgarine | 105% | 103% | 99% | 103% | 100% | ~100% | – | – | – | – | – | –
CC1C(=O)OC2C1CCC1(C)C(=O)C=CC(C)(O)C21 (centres unmarked) [Vulgarine, vulgarine] | – | – | – | – | – | – | ~100% | 112% | 102% | 119% | 104% | 102%
CC1C(=O)OC2C1CCC1(C)C(=O)CCC(C)(O)C21 (centres unmarked) [2,3-dihydrovulgarine] | – | – | – | – | – | – | – | 110% | 104% | 105% | 108% | 105%
